{
  "source": "patent US20120282187A1",
  "about": "(BOEHRINGER INGELHEIM INTERNATIONAL GMBH, priority 2008, published 2012)",
  "key": {"[1]": {"tested_on": "patients with atrial fibrillation", "protocol": "The PETRO-Ex study was conducted in 52 centers in the United States, Denmark, The Netherlands, and Sweden.\nPETRO-Ex began while the PETRO study was ongoing and investigators were initially kept blinded to patient treatment group until PETRO was completed. Unblinding investigators to patient treatment was possible thereafter.\nData were summarized descriptively; no hypothesis was to be tested. Events were analyzed on the basis of the treatment at onset. Incidences were reported as of patients with events as well as normalized to 100 patient-years on the respective treatment.\nPatients who were down titrated to 50 mg q.d. based on a glomerular filtration rate≦50 mL/min during PETRO were excluded from the long-term trial; patients down-titrated in other dose levels remained on the q.d. treatment at that dose.\nThe total exposure reflects both trials, PETRO and PETRO-Ex, together."}, "[2]": {"tested_on": "patients with chronic atrial fibrillation", "test": "PETRO phase 2 12-week dose finding study", "format": "in vivo, human", "description": "Primary endpoints were bleeding events and changes in D-dimer. […] Minor bleeding was dose related."}, "[3]": {"tested_on": "cytochrome P-450 drug metabolizing enzymes", "test": "Cytochrome P-450 interaction", "format": "in vitro ADME", "method": "(§1) Peak levels are seen within 2-3 hours of oral administration. […] Steady-state is reached within 2-3 days with a twice daily regimen. […] The remainder undergoes conjugation with glucuronic acid to form acylglucuronides which are excreted primarily in the bile."}, "[4]": {"test": "Solid state and solubility properties", "format": "physicochemical"}, "[5]": {"test": "Clinical pharmacokinetics and pharmacodynamics of dabigatran etexilate", "format": "in vivo", "description": "Ezekowitz M D, et al., Dabigatran with or without concomitant aspirin compared with warfarin alone in patients with nonvalvular atrial fibrillation (PETRO study), Am. […] The PETRO study is described below.\nAs noted above, management of warfarin therapy is complex, and failure to adequately monitor patients is associated with risk. […] It also interacts with many common foods, drugs and alcohol which alter its therapeutic effect, putting patients at risk of either a bleeding or thrombotic event. Therefore, warfarin therapy requires careful individualized dosing and frequent monitoring. The significant limitations of VKAs have created a need for an oral anticoagulant with a rapid onset of action, minimal drug interactions, and a predictable anticoagulation effect that needs no monitoring.\nas §1"}, "[6]": {"conditions": "PETRO-Ex, including bleeding and thrombotic events"}},
  "note": "Read-outs that look alike come from different tables or passages of the source. Marks after values point to notes of the source that are not given here.",
  "data": [
    {"smiles": "CCCCCCOC(=O)NC(=N)c1ccc(NCc2nc3cc(C(=O)N(CCC(=O)OCC)c4ccccn4)ccc3n2C)cc1", "note": "[Dabigatran etexilate, 1-methyl-2-[N-[4-(N-n-hexyloxycarbonylamidino)phenyl]aminomethyl]benzimidazol-5-ylcarboxylic acid-N-(2-pyridyl)-N-(2-ethoxycarbonylethyl)amides]", "values": [
      {"measurement": "Other MACE, number", "setting": "[1]; 300 mg b.i.d.", "result": 1},
      {"measurement": "Stroke and Systemic Thromboembolism, number", "setting": "[1]; 300 mg b.i.d.", "result": 1},
      {"measurement": "TIA, number", "setting": "[1]; 300 mg b.i.d.", "result": 0},
      {"measurement": "bleeding events", "setting": "[1]; 300 mg b.i.d.", "result": "more than 12 per 100 years"},
      {"measurement": "ALT or AST >2xULN, number", "setting": "[1]; 300 mg q.d.", "result": 3},
      {"measurement": "ALT or AST >2xULN, rate", "setting": "[1]; 300 mg q.d.", "result": 1.5, "unit": "per 100 patient-years"},
      {"measurement": "ALT or AST >3xULN and Bili >2xULN within 30 days, number", "setting": "[1]; 300 mg q.d.", "result": 1},
      {"measurement": "ALT or AST >3xULN and Bili >2xULN within 30 days, rate", "setting": "[1]; 300 mg q.d.", "result": 0.5, "unit": "per 100 patient-years"},
      {"measurement": "ALT or AST >3xULN, number", "setting": "[1]; 300 mg q.d.", "result": 3},
      {"measurement": "ALT or AST >3xULN, rate", "setting": "[1]; 300 mg q.d.", "result": 1.5, "unit": "per 100 patient-years"},
      {"measurement": "ALT or AST >5xULN, number", "setting": "[1]; 300 mg q.d.", "result": 3},
      {"measurement": "ALT or AST >5xULN, rate", "setting": "[1]; 300 mg q.d.", "result": 1.5, "unit": "per 100 patient-years"},
      {"measurement": "Adverse Events leading to premature discontinuation, number", "setting": "[1]; 300 mg q.d.", "result": 19},
      {"measurement": "Adverse Events leading to premature discontinuation, rate", "setting": "[1]; 300 mg q.d.", "result": 9.6, "unit": "per 100 patient-years"},
      {"measurement": "MI, number", "setting": "[1]; 300 mg q.d.", "result": 1},
      {"measurement": "Major Bleeds with aspirin, number", "setting": "[1]; 300 mg q.d.", "result": 2},
      {"measurement": "Major Bleeds with aspirin, rate", "setting": "[1]; 300 mg q.d.", "result": 3.6, "unit": "per 100 patient-years"},
      {"measurement": "Major Bleeds without aspirin, number", "setting": "[1]; 300 mg q.d.", "result": 3},
      {"measurement": "Major Bleeds without aspirin, rate", "setting": "[1]; 300 mg q.d.", "result": 2.1, "unit": "per 100 patient-years"},
      {"measurement": "Major Bleeds, number", "setting": "[1]; 300 mg q.d.", "result": 5},
      {"measurement": "Major Bleeds, rate", "setting": "[1]; 300 mg q.d.", "result": 2.5, "unit": "per 100 patient-years"},
      {"measurement": "Major bleeding events", "setting": "[1]; 300 mg q.d.", "result": 2.5, "unit": "% per year"},
      {"measurement": "Other MACE, number", "setting": "[1]; 300 mg q.d.", "result": 1},
      {"measurement": "Stroke and Systemic Thromboembolism, number", "setting": "[1]; 300 mg q.d.", "result": 5},
      {"measurement": "TIA, number", "setting": "[1]; 300 mg q.d.", "result": 0},
      {"measurement": "fatal major bleeds, number", "setting": "[1]; 300 mg q.d.", "result": 1},
      {"measurement": "tolerability", "setting": "[1]; 300 mg twice daily", "result": "not tolerable"},
      {"measurement": "Serious adverse events: cardiac disorders", "setting": "[1]; PETRO-Ex", "result": 22, "unit": "%"},
      {"measurement": "Serious adverse events: cardiac disorders, pts", "setting": "[1]; PETRO-Ex", "result": 80},
      {"measurement": "Serious adverse events: gastrointestinal disorders", "setting": "[1]; PETRO-Ex", "result": 7.8, "unit": "%"},
      {"measurement": "Serious adverse events: gastrointestinal disorders, pts", "setting": "[1]; PETRO-Ex", "result": 28},
      {"measurement": "Serious adverse events: infections", "setting": "[1]; PETRO-Ex", "result": 9.4, "unit": "%"},
      {"measurement": "Serious adverse events: infections, pts", "setting": "[1]; PETRO-Ex", "result": 34},
      {"measurement": "Serious adverse events: nervous system disorders", "setting": "[1]; PETRO-Ex", "result": 9.1, "unit": "%"},
      {"measurement": "Serious adverse events: nervous system disorders, pts", "setting": "[1]; PETRO-Ex", "result": 33},
      {"measurement": "Major bleeding events (per 100 patient years)", "setting": "[1]; PETRO-Ex, 150 mg b.i.d., without concomitant aspirin", "result": 3.2, "unit": "%*"},
      {"measurement": "LFT abnormalities >3 x-ULN (per 100 patient years)", "setting": "[1]; PETRO-Ex, All doses", "result": 1.7, "unit": "%"},
      {"measurement": "Serious adverse events", "setting": "[1]; [6]", "result": 51, "unit": "%"},
      {"measurement": "Serious adverse events, patients", "setting": "[1]; [6]", "result": 184},
      {"measurement": "ALT or AST >2xULN, number", "setting": "[1]; Total (all doses)", "result": 30},
      {"measurement": "ALT or AST >2xULN, rate", "setting": "[1]; Total (all doses)", "result": 2.9, "unit": "per 100 patient-years"},
      {"measurement": "ALT or AST >3xULN and Bili >2xULN within 30 days, number", "setting": "[1]; Total (all doses)", "result": 4},
      {"measurement": "ALT or AST >3xULN and Bili >2xULN within 30 days, rate", "setting": "[1]; Total (all doses)", "result": 0.4, "unit": "per 100 patient-years"},
      {"measurement": "ALT or AST >3xULN, number", "setting": "[1]; Total (all doses)", "result": 18},
      {"measurement": "ALT or AST >3xULN, rate", "setting": "[1]; Total (all doses)", "result": 1.7, "unit": "per 100 patient-years"},
      {"measurement": "ALT or AST >5xULN, number", "setting": "[1]; Total (all doses)", "result": 11},
      {"measurement": "ALT or AST >5xULN, rate", "setting": "[1]; Total (all doses)", "result": 1.1, "unit": "per 100 patient-years"},
      {"measurement": "Adverse Events leading to premature discontinuation, number", "setting": "[1]; Total (all doses)", "result": 120},
      {"measurement": "Adverse Events leading to premature discontinuation, rate", "setting": "[1]; Total (all doses)", "result": 11.5, "unit": "per 100 patient-years"},
      {"measurement": "MI, number", "setting": "[1]; Total (all doses)", "result": 7},
      {"measurement": "Major Bleeds with aspirin, number", "setting": "[1]; Total (all doses)", "result": 19},
      {"measurement": "Major Bleeds with aspirin, rate", "setting": "[1]; Total (all doses)", "result": 8.5, "unit": "per 100 patient-years"},
      {"measurement": "Major Bleeds without aspirin, number", "setting": "[1]; Total (all doses)", "result": 26},
      {"measurement": "Major Bleeds without aspirin, rate", "setting": "[1]; Total (all doses)", "result": 3.2, "unit": "per 100 patient-years"},
      {"measurement": "Major Bleeds, number", "setting": "[1]; Total (all doses)", "result": 44},
      {"measurement": "Major Bleeds, rate", "setting": "[1]; Total (all doses)", "result": 4.2, "unit": "per 100 patient-years"},
      {"measurement": "Other MACE, number", "setting": "[1]; Total (all doses)", "result": 11},
      {"measurement": "Stroke and Systemic Thromboembolism, number", "setting": "[1]; Total (all doses)", "result": 20},
      {"measurement": "TIA, number", "setting": "[1]; Total (all doses)", "result": 1},
      {"measurement": "ALT or AST >3xULN and Bili >2xULN within 30 days, number", "setting": "[1]; Total (all doses), listed as dabigatran etexilate", "result": "four"},
      {"measurement": "concomitant bilirubin elevation >2xULN within 30 days of transaminase elevations >3xULN", "setting": "[1]; all doses", "result": 0.4, "unit": "% per year"},
      {"measurement": "elevated liver transaminases, AST or ALT >3xULN", "setting": "[1]; all doses", "result": 1.7, "unit": "% per year"},
      {"measurement": "fatal intracranial bleeds, number", "setting": "[1]; all doses", "result": "Three"},
      {"measurement": "fatal major bleeds, number", "setting": "[1]; all doses", "result": "Five"},
      {"measurement": "transaminases (AST or ALT) >5xULN", "setting": "[1]; all doses", "result": 1.1, "unit": "% per year"},
      {"measurement": "bleeding event risk ratio", "setting": "[1]; concomitant aspirin vs. none", "result": 2.70},
      {"measurement": "major bleed rate", "setting": "[1]; doses ≦150 mg/day (150 mg q.d. combined with 50 mg b.i.d.)", "result": 3.7, "unit": "% per year"},
      {"measurement": "bleeding event rate", "setting": "[1]; on concomitant aspirin", "result": 8.5, "unit": "% per year"},
      {"measurement": "bleeding event rate", "setting": "[1]; without concomitant aspirin", "result": 3.2, "unit": "% per year"},
      {"measurement": "Major bleeding events", "setting": "[2]; 300 mg b.i.d. plus ASA groups", "result": 6, "unit": "%"},
      {"measurement": "major bleeding events, number", "setting": "[2]; 300 mg b.i.d. plus ASA groups", "result": "Four"},
      {"measurement": "Minor bleeding", "setting": "[2]; 50, 150, 300 mg b.i.d.", "result": "dose related"},
      {"measurement": "Elevated transaminases >3× upper limit of normal (ULN)", "setting": "[2]; all dabigatran etexilate-treated patients", "result": 0.9, "unit": "%"},
      {"measurement": "Elevated transaminases >3× upper limit of normal (ULN), number of patients", "setting": "[2]; of 432 dabigatran etexilate-treated patients", "result": 4},
      {"measurement": "metabolism by, induction or inhibition of cytochrome P-450 drug metabolizing enzymes", "setting": "[3]", "result": "not metabolized by and does not induce or inhibit"},
      {"measurement": "hygroscopicity", "setting": "[4]", "result": "hygroscopic"},
      {"measurement": "solubility in water", "setting": "[4]", "result": "sparingly soluble in water"},
      {"measurement": "effect of oral strong P-gp inhibitors verapamil, quinidine or amiodarone on dabigatran plasma concentrations", "setting": "[5]; concomitant with dabigatran etexilate", "result": "elevate dabigatran plasma concentrations"},
      {"measurement": "food interactions", "setting": "[5]; in vivo", "result": "no food interactions"},
      {"measurement": "onset of anticoagulant effect", "setting": "[5]; time after dosing", "result": "one"}
    ]}
  ]
}
